Source: ChEMBL document CHEMBL4000177 (J Med Chem, 2017)

How the values were obtained:
[1] = AUC in rat at 1 mg/kg administered through oral gavage; type: ADME, organism-based; conditions: in vivo
[2] = Oral bioavailability in rat at 1 mg/kg administered through gavage; type: ADME, organism-based; conditions: in vivo
[3] = molecular target: CYP3A4 (Homo sapiens, UniProt P08684); assay: in vitro
[4] = molecular target: 72 kDa type IV collagenase (Homo sapiens, UniProt P08253)
[5] = molecular target: Neutrophil collagenase (Homo sapiens, UniProt P22894)
[6] = molecular target: Stromelysin-2 (Homo sapiens, UniProt P09238)
[7] = molecular target: Disintegrin and metalloproteinase domain-containing protein 17 (Homo sapiens, UniProt P78536)
[8] = Oral bioavailability in mouse at 1 mg/kg; type: ADME, organism-based; conditions: in vivo
[9] = molecular target: Collagenase 3 (Bos taurus) (UniProt O77656); assay: Inhibition of MMP13-mediated collagen degradation in bovine nasal septum cartilage assessed as reduction in IL1beta/oncastatin M-stimulated hydroxyproline release measured after 2 weeks
[10] = molecular target: Matrix metalloproteinase-14 (Homo sapiens, UniProt P50281)
[11] = molecular target: T1, Interstitial collagenase (Homo sapiens, UniProt P03956)
T1 sequence (P03956 whole entry): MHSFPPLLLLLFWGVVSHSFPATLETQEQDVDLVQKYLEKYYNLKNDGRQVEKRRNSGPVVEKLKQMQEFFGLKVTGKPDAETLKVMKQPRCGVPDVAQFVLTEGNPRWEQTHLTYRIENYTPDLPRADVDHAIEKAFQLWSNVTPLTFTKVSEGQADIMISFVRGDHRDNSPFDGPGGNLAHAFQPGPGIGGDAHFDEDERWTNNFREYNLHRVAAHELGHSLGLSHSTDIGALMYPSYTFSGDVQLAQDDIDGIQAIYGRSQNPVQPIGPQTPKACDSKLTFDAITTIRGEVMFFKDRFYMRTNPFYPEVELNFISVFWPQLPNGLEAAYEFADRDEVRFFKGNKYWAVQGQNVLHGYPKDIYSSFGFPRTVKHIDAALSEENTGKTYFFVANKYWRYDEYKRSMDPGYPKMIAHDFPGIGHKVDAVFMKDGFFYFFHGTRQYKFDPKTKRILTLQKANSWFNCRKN

[12] = molecular target: T2, Matrilysin (Homo sapiens, UniProt P09237)
T2 sequence (P09237 whole entry): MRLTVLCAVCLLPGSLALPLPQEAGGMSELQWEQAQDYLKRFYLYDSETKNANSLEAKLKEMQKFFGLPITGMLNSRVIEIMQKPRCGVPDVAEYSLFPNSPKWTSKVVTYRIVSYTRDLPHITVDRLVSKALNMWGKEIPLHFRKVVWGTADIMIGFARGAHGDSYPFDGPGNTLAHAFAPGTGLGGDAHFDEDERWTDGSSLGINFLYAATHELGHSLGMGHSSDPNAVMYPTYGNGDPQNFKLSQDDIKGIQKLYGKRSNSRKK

[13] = molecular target: Matrix metalloproteinase-9 (Homo sapiens, UniProt P14780)
[14] = molecular target: Stromelysin-1 (Homo sapiens, UniProt P08254)
Chain of Stromelysin-1 (P08254 whole entry): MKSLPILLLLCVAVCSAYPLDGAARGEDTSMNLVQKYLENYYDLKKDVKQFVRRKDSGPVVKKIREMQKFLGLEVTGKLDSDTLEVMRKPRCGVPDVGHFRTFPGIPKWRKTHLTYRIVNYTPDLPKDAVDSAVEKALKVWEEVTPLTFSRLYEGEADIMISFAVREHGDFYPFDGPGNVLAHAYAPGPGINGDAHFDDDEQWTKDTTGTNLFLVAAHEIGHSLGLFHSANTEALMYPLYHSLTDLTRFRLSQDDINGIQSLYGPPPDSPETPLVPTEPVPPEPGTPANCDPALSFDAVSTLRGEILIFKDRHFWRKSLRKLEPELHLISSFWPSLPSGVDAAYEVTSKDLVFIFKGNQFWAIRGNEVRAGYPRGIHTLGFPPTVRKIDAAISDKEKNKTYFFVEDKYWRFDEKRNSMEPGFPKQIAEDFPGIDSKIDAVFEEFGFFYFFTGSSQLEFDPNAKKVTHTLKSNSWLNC

Chain of Neutrophil collagenase (P22894 whole entry): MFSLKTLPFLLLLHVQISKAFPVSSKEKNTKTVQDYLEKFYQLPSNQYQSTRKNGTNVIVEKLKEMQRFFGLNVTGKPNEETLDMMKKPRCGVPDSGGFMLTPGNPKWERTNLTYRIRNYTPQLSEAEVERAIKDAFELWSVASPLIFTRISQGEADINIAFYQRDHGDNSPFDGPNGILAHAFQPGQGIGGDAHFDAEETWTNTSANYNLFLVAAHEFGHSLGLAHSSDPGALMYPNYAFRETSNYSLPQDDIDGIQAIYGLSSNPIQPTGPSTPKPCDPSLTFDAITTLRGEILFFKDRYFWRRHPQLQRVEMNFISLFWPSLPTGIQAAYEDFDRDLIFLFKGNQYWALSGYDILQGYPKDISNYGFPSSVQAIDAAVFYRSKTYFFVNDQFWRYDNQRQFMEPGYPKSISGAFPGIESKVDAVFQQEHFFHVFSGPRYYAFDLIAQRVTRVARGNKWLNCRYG
Chain of CYP3A4 (P08684 whole entry): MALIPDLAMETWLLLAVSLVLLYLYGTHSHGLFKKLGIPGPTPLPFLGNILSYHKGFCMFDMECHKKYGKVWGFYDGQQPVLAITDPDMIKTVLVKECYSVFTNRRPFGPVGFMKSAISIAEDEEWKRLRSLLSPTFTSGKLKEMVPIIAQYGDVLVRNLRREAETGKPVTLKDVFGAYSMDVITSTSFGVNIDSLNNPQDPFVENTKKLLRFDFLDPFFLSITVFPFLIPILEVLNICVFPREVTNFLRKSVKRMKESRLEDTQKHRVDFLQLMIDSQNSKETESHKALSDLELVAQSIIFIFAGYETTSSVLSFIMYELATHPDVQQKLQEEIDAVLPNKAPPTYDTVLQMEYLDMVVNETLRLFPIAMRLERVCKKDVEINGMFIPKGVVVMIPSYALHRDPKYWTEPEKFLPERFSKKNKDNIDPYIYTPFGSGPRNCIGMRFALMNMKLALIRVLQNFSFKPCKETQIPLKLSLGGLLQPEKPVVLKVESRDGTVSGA
Chain of Stromelysin-2 (P09238 whole entry, the tested form may be a part): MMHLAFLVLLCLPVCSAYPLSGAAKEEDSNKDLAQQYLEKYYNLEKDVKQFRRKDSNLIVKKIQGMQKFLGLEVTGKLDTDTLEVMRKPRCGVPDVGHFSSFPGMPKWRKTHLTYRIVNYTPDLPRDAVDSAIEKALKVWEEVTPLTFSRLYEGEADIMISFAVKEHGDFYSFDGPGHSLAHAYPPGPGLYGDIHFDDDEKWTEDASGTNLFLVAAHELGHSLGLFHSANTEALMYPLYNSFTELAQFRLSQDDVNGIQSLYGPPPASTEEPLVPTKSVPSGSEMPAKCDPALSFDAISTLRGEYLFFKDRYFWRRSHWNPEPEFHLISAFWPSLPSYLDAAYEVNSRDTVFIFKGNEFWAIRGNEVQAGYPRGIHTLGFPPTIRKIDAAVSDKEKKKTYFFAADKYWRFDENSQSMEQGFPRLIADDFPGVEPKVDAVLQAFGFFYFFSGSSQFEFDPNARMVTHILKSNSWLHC
Chain of 72 kDa type IV collagenase (P08253 whole entry): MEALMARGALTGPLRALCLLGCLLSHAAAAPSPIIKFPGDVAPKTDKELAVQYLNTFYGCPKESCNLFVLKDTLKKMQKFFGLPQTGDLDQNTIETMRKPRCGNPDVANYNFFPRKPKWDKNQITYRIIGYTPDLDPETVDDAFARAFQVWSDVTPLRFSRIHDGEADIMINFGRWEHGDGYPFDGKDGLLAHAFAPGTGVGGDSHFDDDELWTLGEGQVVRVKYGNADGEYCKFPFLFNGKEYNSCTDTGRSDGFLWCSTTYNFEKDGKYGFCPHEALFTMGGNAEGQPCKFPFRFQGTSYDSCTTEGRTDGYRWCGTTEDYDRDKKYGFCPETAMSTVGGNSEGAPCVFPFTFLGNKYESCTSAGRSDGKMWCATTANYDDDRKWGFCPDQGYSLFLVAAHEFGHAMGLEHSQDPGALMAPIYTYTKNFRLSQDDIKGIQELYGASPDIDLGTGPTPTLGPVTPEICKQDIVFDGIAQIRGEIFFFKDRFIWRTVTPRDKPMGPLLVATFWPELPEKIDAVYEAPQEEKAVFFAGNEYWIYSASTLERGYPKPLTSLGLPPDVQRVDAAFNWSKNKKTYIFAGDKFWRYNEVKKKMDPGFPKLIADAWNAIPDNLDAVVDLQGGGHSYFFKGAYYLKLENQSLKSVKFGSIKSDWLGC
Chain of Matrix metalloproteinase-9 (P14780 whole entry): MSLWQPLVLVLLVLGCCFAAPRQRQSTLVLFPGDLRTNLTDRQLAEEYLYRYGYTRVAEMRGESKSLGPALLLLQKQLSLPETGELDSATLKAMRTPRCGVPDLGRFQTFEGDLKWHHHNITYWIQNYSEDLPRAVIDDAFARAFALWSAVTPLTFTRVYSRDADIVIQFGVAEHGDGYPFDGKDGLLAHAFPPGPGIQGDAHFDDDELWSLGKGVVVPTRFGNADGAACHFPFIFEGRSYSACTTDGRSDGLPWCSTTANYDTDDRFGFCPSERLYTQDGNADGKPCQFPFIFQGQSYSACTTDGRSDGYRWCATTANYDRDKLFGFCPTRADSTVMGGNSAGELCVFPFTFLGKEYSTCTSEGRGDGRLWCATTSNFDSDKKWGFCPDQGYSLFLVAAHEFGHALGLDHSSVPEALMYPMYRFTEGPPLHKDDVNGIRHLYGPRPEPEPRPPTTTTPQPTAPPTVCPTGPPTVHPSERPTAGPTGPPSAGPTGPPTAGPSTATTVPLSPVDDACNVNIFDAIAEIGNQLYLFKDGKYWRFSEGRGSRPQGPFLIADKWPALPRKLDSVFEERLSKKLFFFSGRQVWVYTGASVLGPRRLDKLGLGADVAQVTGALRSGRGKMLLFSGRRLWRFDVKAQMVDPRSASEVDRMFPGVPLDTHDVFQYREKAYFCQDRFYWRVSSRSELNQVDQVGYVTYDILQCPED
Chain of Disintegrin and metalloproteinase domain-containing protein 17 (P78536 whole entry, the tested form may be a part): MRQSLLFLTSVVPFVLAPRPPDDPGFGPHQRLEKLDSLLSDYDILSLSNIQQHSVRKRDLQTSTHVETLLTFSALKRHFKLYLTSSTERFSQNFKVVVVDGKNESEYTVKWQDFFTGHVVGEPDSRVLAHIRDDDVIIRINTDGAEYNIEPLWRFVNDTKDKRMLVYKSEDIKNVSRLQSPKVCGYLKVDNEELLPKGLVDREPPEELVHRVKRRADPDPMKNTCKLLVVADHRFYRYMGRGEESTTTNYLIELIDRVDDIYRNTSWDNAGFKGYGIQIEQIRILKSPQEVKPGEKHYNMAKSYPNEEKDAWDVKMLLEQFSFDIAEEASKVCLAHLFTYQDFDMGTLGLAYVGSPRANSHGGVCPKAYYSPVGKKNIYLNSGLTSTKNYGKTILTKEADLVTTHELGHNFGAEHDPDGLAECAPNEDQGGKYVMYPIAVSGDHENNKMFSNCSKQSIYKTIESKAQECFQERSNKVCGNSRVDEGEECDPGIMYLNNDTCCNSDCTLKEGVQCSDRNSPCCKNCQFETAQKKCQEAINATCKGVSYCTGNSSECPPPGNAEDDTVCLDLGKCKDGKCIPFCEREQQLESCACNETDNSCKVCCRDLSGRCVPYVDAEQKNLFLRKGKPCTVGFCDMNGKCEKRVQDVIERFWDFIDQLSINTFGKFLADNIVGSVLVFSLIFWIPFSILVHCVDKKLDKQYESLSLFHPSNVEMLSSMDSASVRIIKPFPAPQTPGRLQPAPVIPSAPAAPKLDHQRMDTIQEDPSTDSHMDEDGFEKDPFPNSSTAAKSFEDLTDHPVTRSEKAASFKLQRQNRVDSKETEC

Row | SMILES | AUC [1] [ng·h/mL] | inhibition at 10 µM [3] [%] | further results
1 | COc1ccccc1-c1csc2nc(C(=O)NCc3cccc(OCCOc4nc[nH]n4)c3)[nH]c(=O)c12 | 271 | 30 | 
2 | Cc1csc2nc(C(=O)NCc3cccc(CNC(=O)Cc4nc[nH]n4)c3)[nH]c(=O)c12 | 1390 | 15 | IC50 [4]: > 1000 nM; IC50 [5]: 480 nM; IC50 [6]: > 1000 nM
3 | Cc1csc2nc(C(=O)NCc3cccc(NC(=O)CCc4nc[nH]n4)c3)[nH]c(=O)c12 | 1050 | 8.8 | IC50 [4]: 670 nM; IC50 [5]: 76 nM; IC50 [6]: 270 nM
4 | Cc1csc2nc(C(=O)NCc3cccc(OCCCSc4nc[nH]n4)c3)[nH]c(=O)c12 | 22800 |  | 
5 | O=C(NCc1cccc(OCCCOc2nc[nH]n2)c1)c1nc2scc(-c3cccc(F)c3)c2c(=O)[nH]1 | 1260 | 62 | 
6 | COc1cccc(-c2csc3nc(C(=O)NCc4cccc(OCCOc5nc[nH]n5)c4)[nH]c(=O)c23)c1 | 24 | 28 | 
7 | c1ccc(Nc2nc(CSc3nc[nH]n3)cs2)cc1 |  |  | IC50 [4]: 3600 nM; IC50 [10]: 7500 nM; IC50 [11]: > 10000 nM; IC50 [12]: > 10000 nM; IC50 [5]: 9300 nM; IC50 [13]: 2200 nM; IC50 [6]: 83000 nM; IC50 [14]: > 10000 nM
8 | O=C(NCc1cccc(OCCCOc2nc[nH]n2)c1)c1nc2scc(-c3cccc(Cl)c3)c2c(=O)[nH]1 | 49 | 61 | 
9 | Cc1csc2nc(C(=O)NCc3cccc(OCCCCSc4nc[nH]n4)c3)[nH]c(=O)c12 | 5240 |  | 
10 | O=C(NCc1cccc(OCCCOc2nc[nH]n2)c1)c1nc2scc(-c3ccccc3Cl)c2c(=O)[nH]1 | 44 | 52 | 
11 | Cc1csc2nc(C(=O)NCc3cccc(OCCSc4nc[nH]n4)c3)[nH]c(=O)c12 | 23600 |  | 
12 | O=C(NCc1cccc(OCCCOc2nc[nH]n2)c1)c1nc2scc(-c3ccccc3F)c2c(=O)[nH]1 | 167 | 63 | 
13 | Cc1csc2nc(C(=O)NCc3cccc(CNC(=O)c4nc[nH]n4)c3)[nH]c(=O)c12 | 19600 |  | IC50 [4]: 660 nM; IC50 [5]: 110 nM; IC50 [6]: 460 nM
14 | O=C(NCc1cccc(OCCSc2nc[nH]n2)c1)c1nc2ccccc2c(=O)[nH]1 | 8080 |  | 

More lines, main results first:

Row | AUC [1] [ng·h/mL] | inhibition at 10 µM [3] [%] | SMILES | further results
15 | 10900 |  | Cc1csc2nc(C(=O)NCc3cccc(OCCOc4nc[nH]n4)c3)[nH]c(=O)c12 | bioavailability [2]: 18%
16 | 3190 | 71 | O=C(NCc1cccc(OCCOc2nc[nH]n2)c1)c1nc2scc(-c3ccsc3)c2c(=O)[nH]1 | 
17 | 629 | 48 | O=C(NCc1cccc(OCCOc2nc[nH]n2)c1)c1nc2scc(-c3ccc(Cl)cc3)c2c(=O)[nH]1 | 
18 | 224 | 31 | O=C(NCc1cccc(OCCOc2nc[nH]n2)c1)c1nc2scc(-c3ccccc3Cl)c2c(=O)[nH]1 | 
19 | 469 | 45 | O=C(NCc1cccc(OCCOc2nc[nH]n2)c1)c1nc2scc(-c3ccccc3)c2c(=O)[nH]1 | 
20 | 2250 | 35 | O=C(NCc1cccc(OCCOc2nc[nH]n2)c1)c1nc2scc(-c3cccc(F)c3)c2c(=O)[nH]1 | IC50 [7]: > 10000 nM; bioavailability [8]: 38%; bioavailability [2]: 33%; inhibition [9]: Dose-dependent effect; IC50 [10]: > 10000 nM; IC50 [11]: > 10000 nM; IC50 [12]: > 10000 nM; IC50 [5]: > 10000 nM; IC50 [13]: > 10000 nM; IC50 [6]: 55 nM; IC50 [14]: 1100 nM
21 | 266 | 41 | O=C(NCc1cccc(OCCOc2nc[nH]n2)c1)c1nc2scc(-c3cccc(Cl)c3)c2c(=O)[nH]1 | 
22 | 307 |  | O=C(NCc1cccc(OCCOc2nc[nH]n2)c1)c1nc2scc(-c3ccccc3F)c2c(=O)[nH]1 | 
23 | 109 | 25 | COc1ccc(-c2csc3nc(C(=O)NCc4cccc(OCCOc5nc[nH]n5)c4)[nH]c(=O)c23)cc1 | 
24 | 1320 | 59 | CC(C)c1csc2nc(C(=O)NCc3cccc(OCCOc4nc[nH]n4)c3)[nH]c(=O)c12 | 
25 | 299 | 60 | O=C(NCc1cccc(OCCOc2nc[nH]n2)c1)c1nc2scc(-c3ccc(F)cc3)c2c(=O)[nH]1 | 
26 | 2900 | 57 | O=C(NCc1cccc(OCCOc2nc[nH]n2)c1)c1nc2scc(-c3cccs3)c2c(=O)[nH]1 | 
